Results: patent US9238631B2, “Radiolabeled amino acids for diagnostic imaging” (PIRAMAL IMAGING SA, priority 2011, dated 2016)

Key:
[1] = system: NCI-H460 (human NSCLC) cells; assay: Cell uptake studies: 30 min uptake in H460 cells; assay type: cell-based; conditions: 0.25 MBq tracer, PBS 0.1% BSA
Procedure: For determination of the biological activity, the F18 labeled derivatives were used as tracers in cell uptake experiments. NCI-H460 (human NSCLC) cells, grown adherently in 48 well plates were used for these uptake-experiments. Approximately 100.000 cells were incubated with 0.25 MBq of the tracers for 30 min in PBS-buffer containing 0.1% BSA. After this time, the cell-bound radioactivity was determined using a γ-counter.

xCT (SLC7A11) = biological target: T1, xCT (SLC7A11) (Homo sapiens, UniProt Q9UPY5); assay: Competition profile indicating uptake via xCT (SLC7A11); assay type: cell-based; conditions: co-incubation with 1 mM cold competitors, NCI-H460 cells
T1 construct: NCI-H460 tumor cells were co-incubated with the F-18 labeled tracer and several cold derivatives; endogenous in cells; host or cells: NCI-H460 tumor cells
T1 sequence (Q9UPY5 1-501): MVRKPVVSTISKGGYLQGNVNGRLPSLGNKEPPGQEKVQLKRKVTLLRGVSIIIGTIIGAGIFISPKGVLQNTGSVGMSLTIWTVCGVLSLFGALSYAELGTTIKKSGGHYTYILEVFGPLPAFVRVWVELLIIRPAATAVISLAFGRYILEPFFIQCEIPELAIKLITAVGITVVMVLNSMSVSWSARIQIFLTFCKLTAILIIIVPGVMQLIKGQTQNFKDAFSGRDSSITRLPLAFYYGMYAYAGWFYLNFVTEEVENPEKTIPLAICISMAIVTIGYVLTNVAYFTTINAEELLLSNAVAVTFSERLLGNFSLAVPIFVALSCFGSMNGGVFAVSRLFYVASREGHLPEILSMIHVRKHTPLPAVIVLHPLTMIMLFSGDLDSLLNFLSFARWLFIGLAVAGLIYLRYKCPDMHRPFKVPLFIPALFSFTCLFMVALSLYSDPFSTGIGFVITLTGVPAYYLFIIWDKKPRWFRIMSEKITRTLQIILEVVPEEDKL
T1 sequence (P08195 1-529 partner): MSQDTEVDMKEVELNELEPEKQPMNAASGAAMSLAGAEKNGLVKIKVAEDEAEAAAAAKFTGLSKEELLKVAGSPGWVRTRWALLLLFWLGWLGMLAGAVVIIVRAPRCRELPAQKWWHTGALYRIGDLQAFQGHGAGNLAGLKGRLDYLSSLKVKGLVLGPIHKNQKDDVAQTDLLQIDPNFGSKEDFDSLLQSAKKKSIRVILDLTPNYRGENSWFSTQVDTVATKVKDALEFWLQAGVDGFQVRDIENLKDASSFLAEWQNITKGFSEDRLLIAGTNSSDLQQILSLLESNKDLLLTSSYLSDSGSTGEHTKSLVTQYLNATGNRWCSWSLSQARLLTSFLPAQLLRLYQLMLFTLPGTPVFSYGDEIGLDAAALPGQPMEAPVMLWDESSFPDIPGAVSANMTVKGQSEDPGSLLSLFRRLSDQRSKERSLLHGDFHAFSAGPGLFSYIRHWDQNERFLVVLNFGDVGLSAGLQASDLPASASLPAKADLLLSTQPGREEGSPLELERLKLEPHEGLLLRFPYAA
Procedure: For determination of the responsible uptake mechanism, NCI-H460 tumor cells were co-incubated with the F-18 labeled tracer and several cold derivatives. These derivatives were used at a concentration of 1 mM, which is a large excess compared to the tracer. L-Glutamic acid, L-cystine, Carboxyphenylglycine (CPG) were used as competitors. In addition, also D-Glutamic acid, as well as L-aspartic acid and D-aspartic acid were used in this competition experiments. […] The same experiments were performed using [^18F]-1, [^18F]-4, [^18F]-9, [^18F]-8, [^18F]-25 and [^18F]-22.

NCI-H460 tumor [2] = assay: PET imaging in NCI-H460 tumor bearing nude-mice; assay type: in vivo; conditions: PET at 60 min p.i., approx. 10 MBq
Procedure: a) [^18F]-1 was examined in NCI-H460 tumor bearing nude-mice using PET-imaging. Approx. 10 MBq of the tracer was injected into the animals and PET images were acquired at 60 min p.i. for 10 minutes. The H460-tumor was very well visible in the images with 3.6% ID/g as was determined by region of interest (ROI) analysis. Except of some uptake into the bladder due to the renal excretion, no uptake into non target tissues was observed.
b) [^18F]-12 was examined in the same animal model in mice as described above. Approx. 10 MBq was injected into the animals and PET images were obtained at 60 min p.i. for 10 min. The NCI-H460 tumor was very well visible and uptake of 2.7% ID/g into the tumor was calculated by ROI analysis. Except of some uptake into the gallbladder due to a partial hepatobiliary clearance of this derivative, the majority of activity is excreted renally, resulting in a strong PET signal from the bladder. No uptake in other non-target tissues was observed.

NCI-H460 tumor [3] = assay: PET imaging in NCI-H460 tumor bearing nude-rats; assay type: in vivo
Procedure: c) Beside PET-imaging studies in mice, also the imaging properties of [^18F]-12 in rats were examined. NCI-H460 tumor cells were inoculated into the right flank of nude-rats (RH-Foxn1 nu/nu) 8 to 10 days before the PET study. PET images were acquired at 60 min after injection of approximately 10 MBq for 10 minutes. The H460 tumor was nicely visible (0.9% ID/g as determined by ROI analysis). Beside some minor uptake into the liver and kidneys due to the excretion of the compound, no uptake into other non-target tissues was observed.
To test the imaging properties, compounds from the present invention were evaluated in PET imaging studies using tumor bearing rats. NCI-H460 tumor cells were inoculated into the right flank of nude-rats (RH-Foxn1 nu/nu) 8 to 10 days before the PET study. PET images were acquired at 60 min after injection of approximately 10 MBq for 10 minutes. After the imaging study, region-of-interest (ROI) analysis was performed and activity in tumor, liver and kidney was determined. […] High tumor uptake values of >1% […] in this rat model were obtained with various compounds from the present invention. A favorable clearance profile of all compounds enables excellent tumor detection in PET imaging studies in tumor bearing rats.

- competition profile / uptake mechanism of the tracer (xCT (SLC7A11)): specific uptake
- H460 tumor uptake by ROI analysis (NCI-H460 tumor [2]): 2.7 % ID/g
- Kidney (% ID/g at 1 h p.i.) (NCI-H460 tumor [3]; PET ROI analysis, 1 h p.i.): 0.9 % ID/g
- Liver (% ID/g at 1 h p.i.) (NCI-H460 tumor [3]; PET ROI analysis, 1 h p.i.): 0.8 % ID/g
- Tumor (Max % ID/g at 1 h p.i.) (NCI-H460 tumor [3]; PET ROI analysis, 1 h p.i.): 2.2 % ID/g
- Tumor (Mean % ID/g at 1 h p.i.) (NCI-H460 tumor [3]; PET ROI analysis, 1 h p.i.): 0.9 % ID/g
- H460 tumor uptake by ROI analysis (NCI-H460 tumor [3]; PET at 60 min after injection, approx. 10 MBq): 0.9 % ID/g
Structure (SMILES): N[C@@H](CCC(Cc1ccc(OCC[18F])cc1)C(=O)O)C(=O)O (stereo partly drawn) [[^18F]-12] [(2S)-2-Amino-5-[4-(2-[^18F]fluoroethoxy)benzyl]hexanedioic acid]
- 30 min uptake into H460 cells [%/100.000 cells] [1]: 10.5 ± 0.3 %/100.000 cells
